We go through 3 compounds from US20250339421A1, “METHODS FOR TREATING BILE DUCT CANCERS WITH TIVOZANIB” (The U.S.A., as represented by the Secretary, Department of …, priority 2021, published 2025).

For series [1] the following is noted: cited from earlier work.
Series [2] relates to AKT S473 phosphorylation. Nature of the series: AKT S473 phosphorylation in WITT cholangiocarcinoma cells. Type of series: cell-based. Conditions: WITT cell line, compared to control levels.
For series [3], the system named is AKT S473 phosphorylation. Put plainly: AKT S473 phosphorylation in EGI-1 cholangiocarcinoma cells. Format: cell-based. Conditions: EGI-1 cell line, compared to control levels.
Series [4] deals with AKT S473 phosphorylation. Put plainly: AKT S473 phosphorylation in SNU-1079 cholangiocarcinoma cells. Conditions: SNU-1079 cell line, compared to control levels. Type of series: cell-based.
Series [5] deals with WITT. Put plainly: proliferation of WITT cholangiocarcinoma cells. Type of series: cell-based. Conditions: WITT cell line; IC50 only in FIG. 3C-3E.
For series [6], the system named is EGI-1. Put plainly: proliferation of EGI-1 cholangiocarcinoma cells. Format: cell-based. To be noted: EGI-1 cell line; IC50 only in FIG. 3C-3E.
A further series relates to SNU-1079. Put plainly: proliferation of SNU-1079 cholangiocarcinoma cells. Conditions: SNU-1079 cell line; IC50 only in FIG. 3C-3E. Type of series: cell-based.
Series [7] deals with WITT. Put plainly: tumor organoid assay, WITT. Type of series: cell-based. Conditions: tivozanib at 200 nM vs control. Here is the method: (§1) Images of control are on the top row, whereas the effects of tivozanib at 200 nM are shown in the bottom row where the tumor organoids are smaller and fewer than in the control.
The subject of series [8] is EGI-1. Nature of the series: tumor organoid assay, EGI-1. Type of series: cell-based. To be noted: tivozanib at 200 nM vs control. Here is the method: as §1
The next series deals with SNU-1070. Nature of the series: tumor organoid assay, SNU-1070 (SNU-1079). Type of series: cell-based. To be noted: SNU-1070 as printed; tivozanib at 200 nM vs control. Here is the method:
as §1

A further series has as its system EGI-1 cell line. Nature of the series: subcutaneous xenograft model (EGI-1 cell line). Format: in vivo, athymic nude mice. Here is the method: FIG. 3G is a photograph of tumors obtained in a subcutaneous xenograft model using athymic nude mice (top row=vehicle treated; bottom row=20 mg/kg/day Tivozanib treatment for 28 days).
FIG. 3L provides a photograph of tumors obtained in an EGI-1 CCA cell line subcutaneous xenograft model following 28 days of treatment with vehicle or bevacizumab (top row=vehicle treated; bottom row=bevacizumab). Bevacizumab was provided at the standard murine dose. […] However, the reduction was not as dramatic as that seen with tivozanib alone (see FIG. 3H). As bevacizumab is an anti-VEGF antibody, the reduction seen in tumor volume provided by tivozanib cannot be attributed to its VEGF inhibitory properties alone; otherwise, a similar reduction would have been expected with bevacizumab.
To confirm that the tumoricidal effects of tivozanib were not due to its activity as a VEGF inhibitor, but could be attributed to action on SLK, the antitumor effects of bevacizumab, an anti-VEGF antibody, on EGI-1 cholangiocarcinoma xenografts were evaluated. […] If the decrease in tumor size with tivozanib was due solely to its activity as a VEGF inhibitor, bevacizumab should have produced similar results.

Series [9] concerns liver metastasis from a patient with XPO7-expressing cholangiocarcinoma. Put plainly: ex vivo tumor SMART platform, H&E and Ki67 staining. Format: cell-based, human. Here is the method:
Finally, tivozanib was evaluated in the ex vivo tumor SMART platform described in International Patent Application No. WO2021/183527 which is incorporated by reference herein for all purposes. A liver metastasis from a patient with XPO7-expressing cholangiocarcinoma was evaluated using H&E staining and Ki67 staining to contrast treatment with control versus tivozanib.

In the next series the target is VEGFR-3 (Homo sapiens, UniProt P35916). Conditions: at clinically relevant concentrations; cited from earlier work.
Another series concerns the target c-kit (Homo sapiens, UniProt P10721). To be noted: at clinically relevant concentrations; cited from earlier work.
The target of a further series is PDGFR β (Homo sapiens, UniProt P09619). Conditions: at clinically relevant concentrations; cited from earlier work.
Series [10] concerns various tumor cell types including human renal cell carcinoma. To be noted: tumor xenograft models in mice and rats; cited from earlier work.
The conditions of series [11]: patients on Tivozanib; cited from earlier work.
In another series the target is SLK (Homo sapiens, UniProt Q9H2G2). Nature of the series: kinome inhibition screen. To be noted: FIG. 3A.

Structures can show the parent of a compound that is named as a salt.

Sequence of VEGFR-3 (P35916 25-1363): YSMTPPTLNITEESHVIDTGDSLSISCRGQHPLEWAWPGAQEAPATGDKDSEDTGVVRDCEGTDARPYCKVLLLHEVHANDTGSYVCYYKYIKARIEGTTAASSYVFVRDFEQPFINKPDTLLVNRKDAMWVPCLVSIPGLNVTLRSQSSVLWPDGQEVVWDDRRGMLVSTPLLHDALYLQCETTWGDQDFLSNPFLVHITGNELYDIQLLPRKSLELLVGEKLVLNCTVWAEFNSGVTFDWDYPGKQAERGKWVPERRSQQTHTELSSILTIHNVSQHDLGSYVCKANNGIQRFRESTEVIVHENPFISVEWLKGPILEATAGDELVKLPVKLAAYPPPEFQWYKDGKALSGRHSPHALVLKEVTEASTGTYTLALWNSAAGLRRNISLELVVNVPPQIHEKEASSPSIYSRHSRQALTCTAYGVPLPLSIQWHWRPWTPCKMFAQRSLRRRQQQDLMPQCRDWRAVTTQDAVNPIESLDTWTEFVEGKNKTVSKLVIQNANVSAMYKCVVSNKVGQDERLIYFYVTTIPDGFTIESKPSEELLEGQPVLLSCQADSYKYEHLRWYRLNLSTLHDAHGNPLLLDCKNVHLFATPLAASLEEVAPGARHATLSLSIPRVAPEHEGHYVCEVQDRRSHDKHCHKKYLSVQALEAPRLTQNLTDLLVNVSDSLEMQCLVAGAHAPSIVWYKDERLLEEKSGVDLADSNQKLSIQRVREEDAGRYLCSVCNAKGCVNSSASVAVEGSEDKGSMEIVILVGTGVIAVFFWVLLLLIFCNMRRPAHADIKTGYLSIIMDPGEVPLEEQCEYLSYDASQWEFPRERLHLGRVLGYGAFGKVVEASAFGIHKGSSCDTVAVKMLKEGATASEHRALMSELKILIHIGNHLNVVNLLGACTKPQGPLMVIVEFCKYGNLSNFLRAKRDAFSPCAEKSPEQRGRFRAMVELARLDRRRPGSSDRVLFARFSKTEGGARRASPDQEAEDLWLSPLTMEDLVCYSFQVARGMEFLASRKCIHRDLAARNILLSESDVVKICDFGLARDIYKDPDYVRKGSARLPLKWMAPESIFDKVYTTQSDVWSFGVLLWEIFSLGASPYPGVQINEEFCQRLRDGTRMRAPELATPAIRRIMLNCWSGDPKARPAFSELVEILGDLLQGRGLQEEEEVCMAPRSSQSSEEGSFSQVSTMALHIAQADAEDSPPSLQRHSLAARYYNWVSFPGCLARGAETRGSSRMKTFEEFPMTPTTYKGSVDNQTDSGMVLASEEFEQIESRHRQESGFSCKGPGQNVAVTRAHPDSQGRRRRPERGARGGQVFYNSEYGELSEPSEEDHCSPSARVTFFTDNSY
Sequence of c-kit (P10721 26-976): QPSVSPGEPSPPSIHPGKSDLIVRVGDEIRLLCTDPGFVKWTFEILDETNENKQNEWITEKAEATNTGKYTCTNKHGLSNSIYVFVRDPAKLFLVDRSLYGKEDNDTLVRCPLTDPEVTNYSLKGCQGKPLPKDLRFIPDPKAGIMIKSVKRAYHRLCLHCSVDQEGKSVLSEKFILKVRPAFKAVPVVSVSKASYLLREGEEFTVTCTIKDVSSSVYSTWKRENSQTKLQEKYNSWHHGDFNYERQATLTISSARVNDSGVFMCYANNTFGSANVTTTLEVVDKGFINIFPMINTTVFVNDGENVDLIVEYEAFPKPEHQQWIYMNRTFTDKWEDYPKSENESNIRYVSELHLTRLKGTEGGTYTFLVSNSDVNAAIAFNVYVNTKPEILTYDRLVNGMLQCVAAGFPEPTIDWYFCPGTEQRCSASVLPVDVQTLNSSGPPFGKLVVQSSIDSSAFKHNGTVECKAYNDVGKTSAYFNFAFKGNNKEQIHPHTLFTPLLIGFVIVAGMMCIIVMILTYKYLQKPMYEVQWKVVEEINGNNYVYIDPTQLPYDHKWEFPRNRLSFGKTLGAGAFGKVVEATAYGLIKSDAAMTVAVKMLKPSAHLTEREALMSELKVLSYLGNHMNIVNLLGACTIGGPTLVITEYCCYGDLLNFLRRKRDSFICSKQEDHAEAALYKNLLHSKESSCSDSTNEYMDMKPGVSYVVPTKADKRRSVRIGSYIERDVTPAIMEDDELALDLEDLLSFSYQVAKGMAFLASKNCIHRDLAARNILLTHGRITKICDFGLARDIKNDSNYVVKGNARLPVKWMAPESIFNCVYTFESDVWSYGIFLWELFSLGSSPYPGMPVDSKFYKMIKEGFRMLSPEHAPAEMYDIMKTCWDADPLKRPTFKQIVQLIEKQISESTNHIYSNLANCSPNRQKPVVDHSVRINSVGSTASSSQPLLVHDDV
Sequence of SLK (Q9H2G2 whole entry): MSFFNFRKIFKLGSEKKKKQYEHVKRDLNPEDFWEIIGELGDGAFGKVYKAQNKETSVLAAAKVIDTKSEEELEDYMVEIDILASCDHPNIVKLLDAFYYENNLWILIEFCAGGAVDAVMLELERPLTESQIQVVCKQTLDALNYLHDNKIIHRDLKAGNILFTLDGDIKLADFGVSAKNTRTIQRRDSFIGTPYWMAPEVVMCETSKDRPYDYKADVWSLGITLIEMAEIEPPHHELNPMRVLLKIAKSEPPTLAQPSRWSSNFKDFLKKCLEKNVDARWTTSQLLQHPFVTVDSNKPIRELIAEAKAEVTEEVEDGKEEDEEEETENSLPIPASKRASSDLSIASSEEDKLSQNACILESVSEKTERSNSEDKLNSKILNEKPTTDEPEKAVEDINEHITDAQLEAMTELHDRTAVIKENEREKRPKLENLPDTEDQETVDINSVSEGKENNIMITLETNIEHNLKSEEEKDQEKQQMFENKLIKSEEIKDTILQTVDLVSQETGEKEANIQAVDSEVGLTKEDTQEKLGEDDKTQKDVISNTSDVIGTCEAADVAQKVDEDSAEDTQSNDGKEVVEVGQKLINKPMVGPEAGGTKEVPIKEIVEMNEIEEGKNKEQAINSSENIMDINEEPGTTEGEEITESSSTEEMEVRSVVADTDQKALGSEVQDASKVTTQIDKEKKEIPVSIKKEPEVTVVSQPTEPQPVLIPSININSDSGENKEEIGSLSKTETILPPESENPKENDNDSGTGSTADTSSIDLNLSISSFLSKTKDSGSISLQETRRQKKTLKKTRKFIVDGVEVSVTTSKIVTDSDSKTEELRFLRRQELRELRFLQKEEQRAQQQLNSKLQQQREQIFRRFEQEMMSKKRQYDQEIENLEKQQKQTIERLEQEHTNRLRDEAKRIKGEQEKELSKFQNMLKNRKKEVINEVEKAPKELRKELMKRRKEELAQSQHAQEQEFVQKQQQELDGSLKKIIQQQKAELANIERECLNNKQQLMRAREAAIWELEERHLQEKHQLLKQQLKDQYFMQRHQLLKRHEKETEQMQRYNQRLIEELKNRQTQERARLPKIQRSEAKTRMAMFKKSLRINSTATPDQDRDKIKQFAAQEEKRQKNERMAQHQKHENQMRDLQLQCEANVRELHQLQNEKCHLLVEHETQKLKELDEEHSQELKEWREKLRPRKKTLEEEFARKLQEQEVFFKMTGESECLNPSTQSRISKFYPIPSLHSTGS
Sequence of PDGFR β (P09619 33-1106): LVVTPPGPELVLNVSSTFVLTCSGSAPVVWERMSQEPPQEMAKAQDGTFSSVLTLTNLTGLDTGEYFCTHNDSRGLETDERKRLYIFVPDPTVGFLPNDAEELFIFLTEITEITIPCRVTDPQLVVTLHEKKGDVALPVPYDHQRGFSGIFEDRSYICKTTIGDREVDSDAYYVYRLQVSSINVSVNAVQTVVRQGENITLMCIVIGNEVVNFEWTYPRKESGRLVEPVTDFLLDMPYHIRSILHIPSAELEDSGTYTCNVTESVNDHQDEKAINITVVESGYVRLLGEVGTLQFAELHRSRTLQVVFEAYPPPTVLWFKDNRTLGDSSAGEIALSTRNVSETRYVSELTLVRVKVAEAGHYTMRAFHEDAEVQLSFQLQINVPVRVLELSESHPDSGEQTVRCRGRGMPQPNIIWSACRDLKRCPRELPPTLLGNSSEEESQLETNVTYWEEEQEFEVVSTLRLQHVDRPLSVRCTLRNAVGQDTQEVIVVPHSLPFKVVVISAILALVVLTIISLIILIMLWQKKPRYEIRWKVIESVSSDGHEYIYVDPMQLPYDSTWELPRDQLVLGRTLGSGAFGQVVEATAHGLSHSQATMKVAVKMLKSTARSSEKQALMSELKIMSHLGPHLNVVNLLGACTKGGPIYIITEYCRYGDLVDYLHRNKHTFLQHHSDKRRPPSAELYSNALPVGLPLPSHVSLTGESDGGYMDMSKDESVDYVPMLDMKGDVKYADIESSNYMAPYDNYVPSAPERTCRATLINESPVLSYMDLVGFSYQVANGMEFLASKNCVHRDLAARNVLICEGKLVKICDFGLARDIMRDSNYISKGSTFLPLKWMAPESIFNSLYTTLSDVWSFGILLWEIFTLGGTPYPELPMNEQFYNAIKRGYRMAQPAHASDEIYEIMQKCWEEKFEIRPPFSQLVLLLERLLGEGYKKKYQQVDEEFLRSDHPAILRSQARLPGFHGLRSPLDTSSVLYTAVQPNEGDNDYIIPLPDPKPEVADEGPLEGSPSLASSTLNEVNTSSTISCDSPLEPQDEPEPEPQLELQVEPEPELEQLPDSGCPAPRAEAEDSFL

With `COc1cc2nccc(Oc3ccc(NC(=O)Nc4cc(C)on4)c(Cl)c3)c2cc1OC` [Tivozanib hydrochloride, 1-{2-chloro-4-[(6,7-dimethoxyquinolin-4-yl)oxy]phenyl}-3-(5-methylisoxazol-3-yl) urea hydrochloride hydrate], the solubility in water entry in series [1] is “practically insoluble in water”.
`COc1cc2nccc(Oc3ccc(NC(=O)Nc4cc(C)on4)c(Cl)c3)c2cc1OC` [tivozanib, N-{2-chloro-4-[(6,7-dimethoxy-4-quinolyl)oxy]-phenyl}-N′-(5-methyl-3-isoxazolyl) urea]: the “AKT S473 phosphorylation” value with AKT S473 phosphorylation [2], in the series on AKT S473 phosphorylation [3] and in the series on AKT S473 phosphorylation [4] was “inhibited AKT S473 phosphorylation” in each case. The proliferation result in the series on WITT [5], in the series with EGI-1 [6] and in the series on SNU-1079 was “inhibited proliferation” each time. For the same compound, the tumor organoid formation result in the series on WITT [7], with EGI-1 [8] and in the series with SNU-1070 was “abrogated tumor formation” throughout. For the same compound, in the series on EGI-1 cell line (EGI-1 subcutaneous xenograft), the “tumor growth in vivo” value is given as “inhibited tumor growth”. Further, the “final tumor volume vs control vehicle” value in the series with EGI-1 cell line (tivozanib 20 mg/kg/day for 28 days, p value of <0.001) is “statistically significantly smaller in volume”. Besides, the “change in tumor volume over the course of treatment” value in the series on EGI-1 cell line (waterfall plot FIG. 3I, compared to control) is “substantial change in tumor volume”. Besides, the cell degeneration result in series [9] (0.2 μg/mL tivozanib) and in [9] (1 μg/mL tivozanib) was “statistically significant increased cell degeneration” throughout. Also, the “viable cells compared to control” value in series [9] (0.2 μg/mL tivozanib) and in [9] (1 μg/mL tivozanib) was “fewer viable cells” in each case. Moreover, the “Ki67 staining (dark stained nuclei)” value in series [9] (day 4, vs control tissue (0 μg/mL tivozanib)) was “reduction in dark stained nuclei”. Besides, the cell death entry in series [9] (higher dose level (1 μg/mL tivozanib)) was “statistically significant levels of cell death”. Further, on VEGFR-3, the “phosphorylation of VEGFR-3” value was “inhibits phosphorylation”. Further, the inhibition of c-kit entry at c-kit was “inhibits”. Moreover, the “inhibition of PDGFR β” value on PDGFR β is “inhibits”. Moreover, in series [10], the angiogenesis result is “inhibited”. In series [10], the tumor growth result is given as “inhibited”. In addition, the incidence of hypertension result in series [11] is “high incidence”. Also, the “inhibition of SLK” value on SLK was “potent inhibitor of SLK”.
Turning to bevacizumab: an anti-VEGF antibody, the “average tumor volume vs control group” value in the series on EGI-1 cell line (bevacizumab, standard murine dose, 28 days of treatment) is reported as “statistically significantly smaller”.
